Publication PMC8237267 (Journal of Medicinal Chemistry, 2021)
Entries after “also recorded” stand apart in the source; their conditions may differ.

Columns and labels:
HDAC2 = target: T1, HDAC2 (Homo sapiens, UniProt Q92769); experiment: HDAC EMSA activity assay (Nanosyn); assay type: biochemical
T1 construct: The full-length human HDACs were recombinantly expressed and purified from SF9 insect cells; host or cells: SF9 insect cells

MRC-9 = experiment: Cytotoxicity assay (Cell Titer-Blue, 72 h); assay type: cell-based; conditions: MRC-9 (healthy fibroblasts); read-out: In cellulo IC50 MRC-9
[1] = test system: primary T-PLL patient samples; experiment: Drug combination synergy in primary T-PLL patient samples; assay type: cell-based, human
Source text: Primary T-PLL cells were isolated from peripheral blood (PB) of 10 T-PLL patients. All patients were diagnosed according to WHO criteria based on clinical features, immunophenotyping (flow cytometry and histochemisty; including TCL1 expression), and FISH/karyotyping.[71],[72] Samples were obtained from patients under IRB-approved protocols following written informed consent according to the Declaration of Helsinki. Collection and use of patient material have been approved for research purpose by the ethics committee of the University Hospital of Cologne (EudraCT-Nr.: #2008-001421-34 and AZ11-319) and Helsinki (303/13/03/01/2011).
PB mononuclear cells (PBMCs) of T-PLL samples were obtained by density gradient centrifugation (Histopaque; Sigma-Aldrich). All drug screening in primary T-PLL patient samples were conducted as previously described.[34],[73]

HDAC11 = target: T2, HDAC11 (Homo sapiens, UniProt Q96DB2); experiment: HDAC EMSA activity assay (Nanosyn); assay type: biochemical; conditions: read-out: IC50 HDAC11
T2 construct: The full-length human HDACs were recombinantly expressed and purified from SF9 insect cells; host or cells: SF9 insect cells
T2 sequence (Q96DB2 1-347): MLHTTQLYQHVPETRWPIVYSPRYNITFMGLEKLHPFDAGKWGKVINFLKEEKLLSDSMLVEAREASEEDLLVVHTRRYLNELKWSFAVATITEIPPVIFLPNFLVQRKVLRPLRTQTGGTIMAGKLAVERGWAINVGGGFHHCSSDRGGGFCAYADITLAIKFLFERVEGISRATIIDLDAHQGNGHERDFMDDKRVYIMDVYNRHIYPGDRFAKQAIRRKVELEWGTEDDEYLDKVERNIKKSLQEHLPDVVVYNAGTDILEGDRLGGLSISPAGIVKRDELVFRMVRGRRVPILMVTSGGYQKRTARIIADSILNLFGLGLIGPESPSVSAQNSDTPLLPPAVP

Mac1 = experiment: Cytotoxicity assay (Cell Titer-Blue, 72 h); assay type: cell-based; conditions: ALK- ALCL; one representative of three experiments; read-out: IC50 (heat map) Mac1
Procedure: (§1) The PTCL cell lines, KHYG-1, NK-92, SNK6, DERL-2, Mac1, 1305 Myla, Hut78, SU-DHL-1 or T-ALL cell lines SUP-T11, DND-41, and MOLT4 were maintained in RPMI-1640 supplemented with 10% FBS, 0.06 g/L penicillin/0.1 g/L streptomycin (Pen/Strep, Gibco), and 2 mM L-glutamine (Gibco). Culture media of KHYG-1, NK-92, SNK6, and DERL-2 cells was additionally supplemented with 2.5 ng/mL recombinant human IL-2 (ImmunoTools GmbH, Germany). The authenticity of PTCL cell lines was confirmed by analysis of highly polymorphic short tandem repeat loci (STR) using the PowerPlex 16 HS System (Promega; performed by Microsynth AG, Switzerland).
(§2) Cells were plated in 96-well flat-bottom sterile culture plates with low-evaporation lids (Costar #3997). The inhibitors and a vehicle control (0.5% DMSO) were added to the cells following 24 h. After 72 h, Cell Titer-Blue (Promega #G808A) was added to each well (20 μL), and the fluorescence was measured at 560/590 nm using a Cytation S63 spectrophotometer (BioTek) or a GloMax Discover Microplate Reader (Promega, Madison, WI, USA). GraphPad Prism 6.0 (GraphPad Software Inc.) was used to determine the IC50 values.

Hut78 = experiment: Cytotoxicity assay (Cell Titer-Blue, 72 h); assay type: cell-based; conditions: Homo sapiens, CTCL, one representative of three experiments, read-out: IC50 (heat map) Hut78
Procedure: as §1, §2

HDAC4 = target: T3, HDAC4 (Homo sapiens, UniProt P56524); experiment: HDAC EMSA activity assay (Nanosyn); assay type: biochemical
T3 construct: The full-length human HDACs were recombinantly expressed and purified from SF9 insect cells; host or cells: SF9 insect cells
T3 sequence (P56524 whole entry): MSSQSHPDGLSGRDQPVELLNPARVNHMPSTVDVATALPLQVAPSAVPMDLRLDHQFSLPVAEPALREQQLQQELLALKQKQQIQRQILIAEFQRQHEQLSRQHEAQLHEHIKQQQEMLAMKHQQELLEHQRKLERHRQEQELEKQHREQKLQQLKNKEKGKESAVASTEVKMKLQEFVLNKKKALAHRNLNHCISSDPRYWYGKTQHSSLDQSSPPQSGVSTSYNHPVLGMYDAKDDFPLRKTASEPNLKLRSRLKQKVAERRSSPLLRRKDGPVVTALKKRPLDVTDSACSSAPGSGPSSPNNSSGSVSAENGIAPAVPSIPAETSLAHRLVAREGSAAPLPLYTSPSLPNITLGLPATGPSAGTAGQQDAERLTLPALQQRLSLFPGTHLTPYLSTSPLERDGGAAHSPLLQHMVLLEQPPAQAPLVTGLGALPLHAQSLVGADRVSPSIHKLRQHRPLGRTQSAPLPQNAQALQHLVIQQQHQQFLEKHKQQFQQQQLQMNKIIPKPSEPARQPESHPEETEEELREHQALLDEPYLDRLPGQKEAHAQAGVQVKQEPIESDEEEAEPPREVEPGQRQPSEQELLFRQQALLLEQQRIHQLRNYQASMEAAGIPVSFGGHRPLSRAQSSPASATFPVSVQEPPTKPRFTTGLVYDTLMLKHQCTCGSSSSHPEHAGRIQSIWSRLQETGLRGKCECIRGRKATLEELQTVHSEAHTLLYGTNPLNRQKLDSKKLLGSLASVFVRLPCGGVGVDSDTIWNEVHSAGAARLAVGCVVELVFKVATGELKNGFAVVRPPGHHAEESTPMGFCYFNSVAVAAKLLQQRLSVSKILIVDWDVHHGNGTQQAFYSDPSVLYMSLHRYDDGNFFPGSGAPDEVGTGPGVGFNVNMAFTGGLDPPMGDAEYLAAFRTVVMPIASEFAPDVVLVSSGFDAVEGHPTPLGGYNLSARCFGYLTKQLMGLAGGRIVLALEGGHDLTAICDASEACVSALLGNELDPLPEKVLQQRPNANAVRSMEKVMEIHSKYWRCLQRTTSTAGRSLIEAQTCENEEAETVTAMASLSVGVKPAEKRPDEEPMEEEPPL

[2] = Stability in mouse plasma; assay type: in vitro ADME; conditions: read-out: Plasma stability t1/2
Procedure: The plasma stability of the compounds was evaluated in mouse plasma provided from Sigma-Aldrich, Oakville, Canada. The main stock solutions of the compounds were prepared at 10 mM in DMSO, which was diluted to 100 μM in 50% acetonitrile (ACN)/50% water. Aliquots of 356.5 μL of plasma proteins were placed in a heating block and allowed to equilibrate at 37 °C for 5 min. Then, 3.5 μL of 100 μM compound solutions were added to each vial (final concentration of 1 μM). Three quality control (QC) samples at 100, 500, and 1000 nM were prepared in 0.5% ACN. The vial contents were transferred in 50 μL aliquots at time points of 0.5, 5, 10, 20, 30, and 60 mi to a 96-well autosampler plate containing 150 μL of protein precipitation solution. Ice-cold ACN containing internals standards (100 nM glyburide) were used as the protein precipitation solution. After centrifugation at 4 °C, 5500 rpm for 15 min, the supernatant was diluted in MQ water, and injected into the LC/MS/MS for quantitative analysis.
The mobile phase consisted of (A) 0.1% (v/v) formic acid in Milli-Q water; (B) 0.1% (v/v) formic acid in acetonitrile. […] Peak areas were determined from extracted ion chromatograms. The in vitro half-life (t1/2) of parent compounds were determined by regression analysis of the percent parent disappearance vs time curve.

[3] = Glutathione stability / reactivity assay; assay type: in vitro ADME; conditions: GSH adduct formation by LC/MS/MS; KT-531 up to 24 h
Procedure: Although covalent modification of HDAC6 was not observed (Figure S2), the PFBS group is susceptible to nucleophilic aromatic substitution by biological nucleophiles. A previously described high-throughput in vitro glutathione-reactivity assay was conducted, where compounds were incubated in the presence of glutathione (GSH) and the formation of a GSH-compound adduct was monitored over time via LC/MS/MS.[50]
Compound was added to PBS and 5 mM GSH to reach a final concentration of 5 μM. […] Samples were vortexed and centrifuged for 45 min at 3220g. Aliquots were diluted by ultrapure water, and used for LC/MS/MS analysis. Peak area ratios were determined and percent compounds remaining was calculated by the following equation: [drawing 1] where peak area ratio (t min) is the peak area ratio of control and test compounds at t min; peak area ratio0min is the peak area ratio of control and test compounds at the zero time point. In vitro half-life (t1/2) = −(0.693/k).

T1 sequence (Q92769 whole entry): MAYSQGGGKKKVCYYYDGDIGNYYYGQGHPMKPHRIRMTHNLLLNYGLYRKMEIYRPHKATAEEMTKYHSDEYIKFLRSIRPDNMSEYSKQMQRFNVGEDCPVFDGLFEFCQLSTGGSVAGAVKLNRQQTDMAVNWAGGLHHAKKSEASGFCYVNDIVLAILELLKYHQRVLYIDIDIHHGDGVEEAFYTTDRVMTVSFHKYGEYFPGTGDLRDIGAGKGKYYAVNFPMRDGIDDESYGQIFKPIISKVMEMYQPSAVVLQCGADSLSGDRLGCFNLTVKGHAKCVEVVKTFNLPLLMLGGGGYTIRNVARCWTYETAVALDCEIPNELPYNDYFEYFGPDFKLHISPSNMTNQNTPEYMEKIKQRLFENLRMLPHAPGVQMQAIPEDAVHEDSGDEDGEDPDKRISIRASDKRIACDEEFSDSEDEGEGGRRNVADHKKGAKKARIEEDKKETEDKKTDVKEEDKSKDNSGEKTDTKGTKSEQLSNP

O=C(NO)c1ccc(CN(C2CC2)S(=O)(=O)c2cc(F)c(F)c(F)c2F)cc1 [Compound 14, 4-(((N-Cyclopropyl-2,3,4,5-tetrafluorophenyl)sulfonamido)methyl)-N-hydroxybenzamide]
IC50 (HDAC2): > 1 µM
IC50 (MRC-9): > 20 µM
combination with idasanutlin, bendamustine and venetoclax [1]: All combinations revealed synergistic relationships in patient samples
IC50 (HDAC11): > 1 µM
IC50 (Mac1): 9.6 µM
IC50 (Hut78): 16.2 µM
IC50 (HDAC4): > 1 µM
half-life at 1 μM [2]: 41 min
reactivity with glutathione [3]: no discernible reactivity with GSH; also recorded: no discernible SNAr reaction with GSH
